Measured values from US11442072B2, “Method for measuring LDL aggregation” (Jenny and Antti Wihuri Foundation, priority 2018, dated 2022).

Legend:
[1] = target: T1, LDL particles (Homo sapiens, UniProt P04114); assay: Ex vivo enrichment of LDL with phospholipid vesicles, then hrSMase-induced aggregation (DLS); type: biochemical; conditions: LDL from four healthy volunteers, enriched with 1 mM phospholipid vesicles
T1 construct: from tissue; host or cells: human blood plasma (LDL fraction d=1.019-1.063 g/ml, ultracentrifugation)
Protocol: In the standard assay, LDL isolated from human plasma was extensively dialyzed against 20 mM MES buffer, pH 5.5, containing 150 mM NaCl and 50 μM ZnCl2 and its apoB-100 concentration was determined by ELISA (Mabtech). The sample was diluted with the same buffer to give a final concentration of 0.2 mg of apoB-100/ml and 75 μg/ml of hrSMase was added to LDL. The size of LDL was determined immediately and once every hour for up to 6-hours. An aliquot was taken at the same time points for phosphorylcholine measurement. The degree of SM hydrolysis was determined by measuring the amount of phosphorylcholine from the samples with Amplex Red reagent (Invitrogen).
To exchange LDL surface phospholipids, LDL (2 mg/ml) was incubated with phospholipid vesicles (1 mM phosphatidylcholine 18:1/16:0 (1-palmityl-2-oleyl-sn-glycero-3-phosphocholine), lysophosphatidylcholine 16:0 (1-Palmitoyl-2-Hydroxy-sn-Glycero-3-Phosphocoline) or sphingomyelin 16:0 (N-Palmitoyl-D-erythro-sphingosylphosphorylcholine) each from Avanti Polar Lipids) overnight at 37° C. in buffer A (5 mM Tris, 150 mM NaCl, 1 mM EDTA, pH 7.4). The vesicles had been prepared by sonicating 10 mM lipid solutions using a Branson Sonifier 250 sonicator (6 times for 5 minutes) in buffer A. Vesicles were removed with sequential ultracentrifugation (d<1.019 g/ml KBr) repeated twice. […]

[2] = target: T2, apoB-100 (Homo sapiens, UniProt P04114); assay: Circular dichroism of phospholipid-enriched LDL after SMase treatment; type: biochemical; conditions: lipid-enriched LDL, SMase 30 min
T2 construct: from tissue; host or cells: human blood plasma (LDL fraction d=1.019-1.063 g/ml, ultracentrifugation)
Protocol: Samples of control and SM-, PC- and LPC-enriched LDL particles (1 mg/ml) were treated with SMase for 30-min and lipolysis was stopped by 10 mM EDTA. The LDL particles (50 μg/ml) were analyzed by CD as described previously (11,12).

[3] = system: LDL; assay: LDL aggregation induced by oxidation, proteolysis or lipolysis, followed by DLS; type: biochemical, human; conditions: LDL 0.5 mg/ml from four donors; hrSMase at pH 5.5, other agents at pH 7.4
Protocol: Firstly, inter-individual variability in LDL aggregation using agents that have been reported to cause LDL aggregation was tested. LDL aggregation was induced at LDL concentration of 0.5 mg/ml by oxidation (incubation with 5 μM CuSO4), by proteolysis (incubation with 0.1 mg/ml α-chymotrypsin from bovine pancreas (Sigma-Aldrich)), or by lipolysis (incubation with 50 mU/ml phospholipase A2 (PLA2) from bee venom (Sigma-Aldrich)), with 200 mU/ml SMase from Bacillus cereus (bcSMase, Sigma-Aldrich)), or with 75 μg/ml hrSMase (a kind gift from Genzyme or produced in house). The incubation buffer was 20 mM Tris-HCl, pH 7.4, containing 150 mM NaCl and 2 mM CaCl2 and 2 mM MgCl2, except in the case of hrSMase, where the incubation buffer was 20 mM MES, pH 5.5, containing 150 mM NaCl and 50 μM ZnCl2. LDL size was determined at the beginning of the incubation and aggregate size was determined at the indicated time points by dynamic light scattering (DLS) (Zetasizer Nano, Malvern Instruments, Malvern Works, UK or Wyatt DynaPro Plate Reader 11, Wyatt Technology, California, USA).

T1 sequence (P04114 28-4563): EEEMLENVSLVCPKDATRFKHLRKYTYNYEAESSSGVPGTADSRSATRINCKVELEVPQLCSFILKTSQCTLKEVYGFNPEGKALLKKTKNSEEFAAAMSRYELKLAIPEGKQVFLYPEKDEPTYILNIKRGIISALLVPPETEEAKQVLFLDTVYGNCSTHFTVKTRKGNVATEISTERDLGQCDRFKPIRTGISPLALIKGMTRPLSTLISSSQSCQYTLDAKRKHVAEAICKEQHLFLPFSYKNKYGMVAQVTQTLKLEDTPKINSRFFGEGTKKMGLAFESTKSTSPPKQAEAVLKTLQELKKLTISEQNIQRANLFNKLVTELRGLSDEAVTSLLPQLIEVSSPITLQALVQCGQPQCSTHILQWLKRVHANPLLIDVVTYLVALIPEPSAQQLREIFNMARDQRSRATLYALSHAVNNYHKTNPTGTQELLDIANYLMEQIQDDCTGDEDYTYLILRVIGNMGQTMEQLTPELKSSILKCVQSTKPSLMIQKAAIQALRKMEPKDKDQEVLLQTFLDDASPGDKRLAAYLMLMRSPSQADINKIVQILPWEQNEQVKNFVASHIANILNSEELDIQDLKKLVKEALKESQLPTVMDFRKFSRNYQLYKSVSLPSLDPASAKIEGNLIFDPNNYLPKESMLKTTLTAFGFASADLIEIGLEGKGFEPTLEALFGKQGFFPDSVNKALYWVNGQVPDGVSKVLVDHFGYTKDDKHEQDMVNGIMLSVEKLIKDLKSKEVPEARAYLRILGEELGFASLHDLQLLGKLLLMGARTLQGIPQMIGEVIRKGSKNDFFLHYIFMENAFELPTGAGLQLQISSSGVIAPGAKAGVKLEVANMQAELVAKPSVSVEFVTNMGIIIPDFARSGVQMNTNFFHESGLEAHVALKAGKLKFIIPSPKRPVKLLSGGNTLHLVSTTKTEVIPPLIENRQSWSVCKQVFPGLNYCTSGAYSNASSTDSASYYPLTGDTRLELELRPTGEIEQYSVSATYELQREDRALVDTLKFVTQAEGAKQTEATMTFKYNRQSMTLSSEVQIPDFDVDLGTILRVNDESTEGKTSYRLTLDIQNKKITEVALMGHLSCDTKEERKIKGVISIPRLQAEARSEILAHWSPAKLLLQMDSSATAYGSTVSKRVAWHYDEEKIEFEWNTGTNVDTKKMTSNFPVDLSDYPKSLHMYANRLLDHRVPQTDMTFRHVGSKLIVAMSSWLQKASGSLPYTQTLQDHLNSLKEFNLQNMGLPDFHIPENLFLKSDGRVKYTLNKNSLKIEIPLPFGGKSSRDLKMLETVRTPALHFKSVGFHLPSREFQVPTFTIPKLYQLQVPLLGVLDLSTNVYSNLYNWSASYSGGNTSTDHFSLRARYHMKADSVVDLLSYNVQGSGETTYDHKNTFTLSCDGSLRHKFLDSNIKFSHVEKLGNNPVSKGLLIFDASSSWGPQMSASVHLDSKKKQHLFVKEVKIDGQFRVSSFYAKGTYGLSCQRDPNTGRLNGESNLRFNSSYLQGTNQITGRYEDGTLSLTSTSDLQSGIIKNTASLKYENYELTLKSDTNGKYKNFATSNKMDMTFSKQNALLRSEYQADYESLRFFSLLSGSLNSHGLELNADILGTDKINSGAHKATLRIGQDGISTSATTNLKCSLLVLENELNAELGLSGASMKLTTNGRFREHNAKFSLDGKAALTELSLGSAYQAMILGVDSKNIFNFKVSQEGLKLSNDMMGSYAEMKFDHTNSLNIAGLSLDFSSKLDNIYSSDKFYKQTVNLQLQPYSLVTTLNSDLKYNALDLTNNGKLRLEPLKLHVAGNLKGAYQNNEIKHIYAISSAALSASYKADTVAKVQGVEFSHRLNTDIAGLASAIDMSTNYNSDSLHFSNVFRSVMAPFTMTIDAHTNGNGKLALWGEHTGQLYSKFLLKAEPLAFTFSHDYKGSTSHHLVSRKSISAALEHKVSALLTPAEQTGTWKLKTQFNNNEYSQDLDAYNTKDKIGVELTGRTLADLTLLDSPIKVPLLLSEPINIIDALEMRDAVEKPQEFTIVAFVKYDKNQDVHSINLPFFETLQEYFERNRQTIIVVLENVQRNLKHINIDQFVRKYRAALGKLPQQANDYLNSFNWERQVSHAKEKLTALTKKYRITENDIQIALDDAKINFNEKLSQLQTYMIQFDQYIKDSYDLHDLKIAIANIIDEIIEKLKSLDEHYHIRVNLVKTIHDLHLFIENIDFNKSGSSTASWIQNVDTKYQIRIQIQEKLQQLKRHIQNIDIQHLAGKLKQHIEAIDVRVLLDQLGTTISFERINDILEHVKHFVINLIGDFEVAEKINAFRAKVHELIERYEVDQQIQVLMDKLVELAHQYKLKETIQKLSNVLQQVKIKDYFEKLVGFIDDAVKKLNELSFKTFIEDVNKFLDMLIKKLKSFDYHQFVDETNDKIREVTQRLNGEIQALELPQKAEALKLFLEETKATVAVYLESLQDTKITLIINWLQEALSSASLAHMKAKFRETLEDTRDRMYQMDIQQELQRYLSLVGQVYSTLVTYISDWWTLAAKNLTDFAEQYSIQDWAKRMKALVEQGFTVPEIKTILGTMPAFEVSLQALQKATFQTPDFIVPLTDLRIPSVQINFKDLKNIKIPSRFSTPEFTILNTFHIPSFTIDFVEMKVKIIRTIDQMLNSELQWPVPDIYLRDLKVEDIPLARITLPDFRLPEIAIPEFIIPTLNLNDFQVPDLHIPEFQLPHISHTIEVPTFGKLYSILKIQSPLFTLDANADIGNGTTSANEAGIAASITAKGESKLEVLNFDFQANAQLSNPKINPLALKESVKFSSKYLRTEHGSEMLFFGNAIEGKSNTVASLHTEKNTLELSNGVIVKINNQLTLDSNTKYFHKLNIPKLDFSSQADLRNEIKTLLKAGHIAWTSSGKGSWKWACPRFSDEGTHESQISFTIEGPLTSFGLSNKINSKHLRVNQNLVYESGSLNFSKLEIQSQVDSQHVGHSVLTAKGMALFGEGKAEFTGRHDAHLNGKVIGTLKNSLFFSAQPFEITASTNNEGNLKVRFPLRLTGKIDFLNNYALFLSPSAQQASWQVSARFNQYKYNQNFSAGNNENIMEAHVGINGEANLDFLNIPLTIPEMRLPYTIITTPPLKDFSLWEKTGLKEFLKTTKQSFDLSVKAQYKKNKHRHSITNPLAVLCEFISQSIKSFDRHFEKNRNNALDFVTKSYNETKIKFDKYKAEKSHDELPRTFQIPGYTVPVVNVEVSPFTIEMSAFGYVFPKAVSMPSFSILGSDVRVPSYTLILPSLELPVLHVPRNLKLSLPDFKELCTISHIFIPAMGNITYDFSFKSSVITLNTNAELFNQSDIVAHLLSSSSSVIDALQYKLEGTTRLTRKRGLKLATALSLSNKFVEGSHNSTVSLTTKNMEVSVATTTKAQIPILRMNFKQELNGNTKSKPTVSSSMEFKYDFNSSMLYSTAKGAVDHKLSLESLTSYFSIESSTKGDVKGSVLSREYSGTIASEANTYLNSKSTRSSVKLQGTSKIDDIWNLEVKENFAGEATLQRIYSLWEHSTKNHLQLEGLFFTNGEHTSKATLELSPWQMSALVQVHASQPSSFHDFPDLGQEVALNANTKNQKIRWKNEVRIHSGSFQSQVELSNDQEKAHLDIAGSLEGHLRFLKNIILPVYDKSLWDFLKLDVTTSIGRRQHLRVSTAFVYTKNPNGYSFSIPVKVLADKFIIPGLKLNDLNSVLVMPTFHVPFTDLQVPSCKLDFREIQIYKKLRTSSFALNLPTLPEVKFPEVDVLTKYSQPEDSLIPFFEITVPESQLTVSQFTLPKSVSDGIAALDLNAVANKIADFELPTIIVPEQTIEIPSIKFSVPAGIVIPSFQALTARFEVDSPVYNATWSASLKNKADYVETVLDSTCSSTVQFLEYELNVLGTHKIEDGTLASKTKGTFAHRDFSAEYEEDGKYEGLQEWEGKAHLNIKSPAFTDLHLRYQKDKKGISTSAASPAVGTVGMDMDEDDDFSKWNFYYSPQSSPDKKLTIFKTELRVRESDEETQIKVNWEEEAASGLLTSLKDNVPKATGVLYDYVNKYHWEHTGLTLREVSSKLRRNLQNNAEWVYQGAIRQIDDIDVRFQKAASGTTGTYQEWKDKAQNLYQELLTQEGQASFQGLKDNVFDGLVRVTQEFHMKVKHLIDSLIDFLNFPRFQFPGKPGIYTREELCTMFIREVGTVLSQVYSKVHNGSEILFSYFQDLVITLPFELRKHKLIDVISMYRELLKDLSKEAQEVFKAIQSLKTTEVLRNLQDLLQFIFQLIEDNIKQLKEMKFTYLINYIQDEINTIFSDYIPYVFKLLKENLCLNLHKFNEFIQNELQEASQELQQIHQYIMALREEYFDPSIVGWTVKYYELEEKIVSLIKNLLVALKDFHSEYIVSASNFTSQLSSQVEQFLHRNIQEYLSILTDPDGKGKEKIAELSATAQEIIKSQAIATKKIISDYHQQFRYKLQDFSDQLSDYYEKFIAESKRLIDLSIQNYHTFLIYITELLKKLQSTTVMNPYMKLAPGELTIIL
T2 sequence (P04114 28-4563): as above

`CCCCCCCCCCCCCCCC(=O)OC[C@@H](O)COP(=O)([O-])OCC[N+](C)(C)C` [LPC 16:0, 1-Palmitoyl-2-Hydroxy-sn-Glycero-3-Phosphocoline] was tested, and the “Susceptibility of lipid-enriched LDL to aggregate during incubation with hrSMase, vs control LDL” value [1] was “less susceptible”.

With `CCCCCCCCCCCCC/C=C/[C@@H](O)[C@H](COP(=O)([O-])OCC[N+](C)(C)C)NC(=O)CCCCCCCCCCCCCCC` [SM 18:1/16:0, N-Palmitoyl-D-erythro-sphingosylphosphorylcholine] the “Susceptibility of lipid-enriched LDL to aggregate during incubation with hrSMase, vs control LDL” value [1] was “more susceptible” and the “SMase-induced conformational changes in apoB-100” value [2] was “enhanced”.

B1: bcSMase: SMase from Bacillus cereus (Sigma-Aldrich) (protein, UniProt P09599 28-333, looked up)
Sphingomyelinase C: DTSTDQNNTLKVMTHNVYMLSTNLYPNWGQSQRADLIGAADYIKNQDVVILNEVFDNSASDRLLGNLKKEYPNQTAVLGRSNGNEWDKTLGSYSSSTPEDGGVAIVSKWPIVEKIQYVFAKGCGPDNLSNKGFVYTKIKKNDRFVHVIGTHLQAEDSMCGKTSPASVRTNQLKEIQDFIKNKNIPNDEYVLFGGDMNVNKINAENNSDSEYASMFKTLHASIPSYTGHTATWDATTNSIAKYNFPDSPAEYLDYIIASKDHANPSFIENKVLQPKSPQWTVTSWLKKYTYDDYSDHYPVAATISMK
For B1, the “Aggregation of LDL” value [3] was “caused aggregation”.
